Test results reported in patent US20160159773A1, “HETEROCYCLIC COMPOUND” (TAKEDA PHARMACEUTICAL COMPANY LIMITED, priority 2013, published 2016).
Where a name gives a salt, the structure may show the parent alone.

Each compound was assayed against T1, Tyk2 (Homo sapiens, UniProt P29597) (assay: Tyk2 enzyme inhibition test (LANCE method)). Details: test compound 1 μM; well without enzyme = 100% inhibition; read-out: Tyk2 enzyme inhibitory activity (%, 1 μM).
T1 construct: purchased Invitrogen
Format: biochemical
Protocol: Tyk2 Enzyme Inhibition Test
Tyk2 enzyme inhibitory activity of test compounds was measured by LANCE method (PerkinElmer). First, a test compound diluted with assay buffer (50 mM HEPES (pH=7.5), 10 mM MgCl2, 1 mM EGTA, 2 mM DTT, 0.01% Tween20, 0.01% BSA) was added to 384-well plate at 2 μL each. Then, a Tyk2 (Invitrogen) solution and a fluorescence-labeled peptide substrate (ULight-JAK1, PerkinElmer) solution diluted with assay buffer at 375 ng/mL and 300 nM, respectively were added at 2 μL each. Then, enzyme reaction was started by adding 2 μL each of ATP solution prepared with assay buffer at 30 μM. After the reaction at room temperature for 1 hr, Detection Buffer (PerkinElmer) prepared to be 20 mM EDTA, 4 nM europium-labeled anti-phosphotyrosine antibody (PerkinElmer) was added at 6 μL each. After standing at room temperature for 1 hr, fluorescence intensity (excitation wavelength 340 nm, fluorescence wavelength 665 nm, delay time 100 microsecond) was measured by a plate reader, Envision (PerkinElmer). The inhibitory activity of each compound was calculated as relative value where fluorescence intensity of a well without enzyme is considered as 100% inhibition.

T1 sequence (P29597 whole entry): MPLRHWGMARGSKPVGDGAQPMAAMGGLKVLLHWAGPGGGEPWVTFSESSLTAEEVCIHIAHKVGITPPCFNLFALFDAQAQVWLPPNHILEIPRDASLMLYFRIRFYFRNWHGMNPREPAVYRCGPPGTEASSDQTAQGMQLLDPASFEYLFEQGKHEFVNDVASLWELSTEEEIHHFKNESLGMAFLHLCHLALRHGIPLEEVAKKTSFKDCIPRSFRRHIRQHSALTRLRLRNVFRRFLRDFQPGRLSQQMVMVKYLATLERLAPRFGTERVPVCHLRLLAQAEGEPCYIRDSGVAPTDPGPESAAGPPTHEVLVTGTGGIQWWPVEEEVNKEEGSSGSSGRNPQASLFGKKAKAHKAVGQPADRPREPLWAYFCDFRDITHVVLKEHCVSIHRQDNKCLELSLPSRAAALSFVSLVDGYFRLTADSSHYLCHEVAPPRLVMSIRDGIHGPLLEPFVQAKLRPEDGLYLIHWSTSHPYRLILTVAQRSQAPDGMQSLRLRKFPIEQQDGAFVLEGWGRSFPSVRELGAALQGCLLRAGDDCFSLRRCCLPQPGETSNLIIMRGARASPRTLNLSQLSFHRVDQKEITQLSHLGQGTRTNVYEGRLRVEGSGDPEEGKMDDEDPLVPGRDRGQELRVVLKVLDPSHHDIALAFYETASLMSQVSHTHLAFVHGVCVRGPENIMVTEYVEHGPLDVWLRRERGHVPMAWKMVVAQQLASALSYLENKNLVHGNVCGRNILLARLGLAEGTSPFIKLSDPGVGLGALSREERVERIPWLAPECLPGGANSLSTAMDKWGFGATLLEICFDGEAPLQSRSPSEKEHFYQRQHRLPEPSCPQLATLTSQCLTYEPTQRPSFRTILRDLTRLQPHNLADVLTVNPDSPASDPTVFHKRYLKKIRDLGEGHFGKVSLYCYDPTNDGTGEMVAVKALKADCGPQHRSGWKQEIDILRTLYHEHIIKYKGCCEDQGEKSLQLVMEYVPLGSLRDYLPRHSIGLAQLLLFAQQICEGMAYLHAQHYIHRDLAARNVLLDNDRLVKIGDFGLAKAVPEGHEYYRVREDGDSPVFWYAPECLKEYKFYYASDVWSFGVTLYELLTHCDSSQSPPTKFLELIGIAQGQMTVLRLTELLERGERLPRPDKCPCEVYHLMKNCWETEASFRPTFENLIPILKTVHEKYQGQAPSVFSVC

Row | inhibition at 1 µM | Compound
1 | 99% | N#C[C@@]1(C2CC2)CCN(c2ccnc(Nc3ccc(N4CCOCC4)cn3)c2)C1=O [Example 1, (3S)-3-cyclopropyl-1-(2-((5-(morpholin-4-yl)pyridin-2-yl)amino)pyridin-4-yl)-2-oxopyrrolidine-3-carbonitrile]
2 | 99% | CC(C)(O)c1ccc(Nc2cc(N3CC[C@@](C#N)(C4CC4)C3=O)ccn2)nc1 [Example 3, (3S)-3-cyclopropyl-1-(2-((5-(2-hydroxypropan-2-yl)pyridin-2-yl)amino)pyridin-4-yl)-2-oxopyrrolidine-3-carbonitrile]
3 | 101% | CNC(=O)c1cc(Nc2cc(N3CC[C@@](C#N)(C4CC4)C3=O)ccn2)nn1C [Example 5, 3-((4-((3S)-3-cyano-3-cyclopropyl-2-oxopyrrolidin-1-yl)pyridin-2-yl)amino)-N,1-dimethyl-1H-pyrazole-5-carboxamide]
4 | 100% | CC(=O)Nc1ccnc(Nc2cc(N3CC[C@@](C#N)(C4CC4)C3=O)ccn2)c1 [Example 29, N-(2-((4-((3S)-3-cyano-3-cyclopropyl-2-oxopyrrolidin-1-yl)pyridin-2-yl)amino)pyridin-4-yl)acetamide]
5 | 100% | Cn1nc(Nc2cc(N3CC[C@@](C#N)(C4CC4)C3=O)ccn2)cc1N1CCOCC1 [Example 31, (3S)-3-cyclopropyl-1-(2-((1-methyl-5-(morpholin-4-yl)-1H-pyrazol-3-yl)amino)pyridin-4-yl)-2-oxopyrrolidine-3-carbonitrile]
6 | 95% | N#C[C@@]1(C2CC2)CCN(c2ccnc(Nc3cc(C(F)(F)F)ncn3)c2)C1=O [Example 43, (3S)-3-cyclopropyl-2-oxo-1-(2-((6-(trifluoromethyl)pyrimidin-4-yl)amino)pyridin-4-yl)pyrrolidine-3-carbonitrile]
7 | 96% | N#C[C@@]1(C2CC2)CCN(c2ccnc(Nc3cccnn3)c2)C1=O [Example 92, (3S)-3-cyclopropyl-2-oxo-1-(2-(pyridazin-3-ylamino)pyridin-4-yl)pyrrolidine-3-carbonitrile]
8 | 72% | CCC1(C#N)CCN(c2ccnc(Nc3ccc(N4CCOCC4)cn3)c2)C1=O (stereo not shown) [Example 126, 3-ethyl-1-(2-((5-(morpholin-4-yl)pyridin-2-yl)amino)pyridin-4-yl)-2-oxopyrrolidine-3-carbonitrile hydrochloride]
9 | 83% | N#CC1(C2CC2)CCN(c2ccnc(Nc3ccc(N4CCOCC4)cn3)c2)C1=O (stereo not shown) [Example 127, 3-cyclopropyl-1-(2-((5-(morpholin-4-yl)pyridin-2-yl)amino)pyridin-4-yl)-2-oxopyrrolidine-3-carbonitrile]
10 | 90% | CC(C)(CO)n1cc(Nc2cc(N3CCC(C#N)(C4CC4)C3=O)ccn2)cn1 (stereo not shown) [Example 129, 3-cyclopropyl-1-(2-((1-(1-hydroxy-2-methylpropan-2-yl)-1H-pyrazol-4-yl)amino)pyridin-4-yl)-2-oxopyrrolidine-3-carbonitrile]
11 | 106% | CNC(=O)c1cc(Nc2cc(N3C(=O)[C@](C#N)(C4CC4)C[C@H]3C)ccn2)nn1C [Example 136, 3-((4-((3S,5R)-3-cyano-3-cyclopropyl-5-methyl-2-oxopyrrolidin-1-yl)pyridin-2-yl)amino)-N,1-dimethyl-1H-pyrazole-5-carboxamide]
12 | 107% | C[C@@H]1C[C@@](C#N)(C2CC2)C(=O)N1c1ccnc(Nc2cc(C(N)=O)n(C)n2)c1 [Example 137, 3-((4-((3S,5R)-3-cyano-3-cyclopropyl-5-methyl-2-oxopyrrolidin-1-yl)pyridin-2-yl)amino)-1-methyl-1H-pyrazole-5-carboxamide]
13 | 102% | Cn1nc(Nc2cc(N3CC[C@@](C#N)(C4CC4)C3=O)ccn2)cc1C(N)=O [Example 138, 3-((4-((3S)-3-cyano-3-cyclopropyl-2-oxopyrrolidin-1-yl)pyridin-2-yl)amino)-1-methyl-1H-pyrazole-5-carboxamide]
